The source of these data is US10780094B2, “Use of carbonic anhydrase inhibitors for treatment of neurological and psychiatric disorders” (New York University, priority 2016, dated 2020).

In one experiment the test system is SH-SY5Y cells. The experiment can be described thus: Cell Death ELISAplus, Aβ-induced apoptosis (fragmented nucleosomes). It is filed as cell-based, human. The settings on record: for apoptosis in response to Aβ: Example 2/3, Aβ42 challenge, FIG. 17A, 21. As for the experimental part:
The extent of apoptosis caused by Aβ in the presence or absence of MTZ was assessed by quantitation of nucleosome formation using Cell Death ELISA^plus (Roche Applied Science, Indianapolis, Ind.). Briefly, after incubation with the peptides, plates were centrifuged in a Beckman J-6B centrifuge (10 min; 1,000 rpm), cells lysed, and DNA-histone complexes (nucleosomes) quantitated by Cell Death ELISA, as previously described (Fossati et al., 2010).
(§1) 20.000 cells per well were plated on 24-wells plates. The day after, cells were treated with peptides and/or drugs, following the experimental conditions.
(§2) 20,000 cells per well were plated on 24-wells plates. The day after, cells were treated with peptides and/or drugs, following the experimental conditions.

A further experiment relates to hCMEC/D3 cells (D3). Description: Cell Death ELISAplus, Aβ-induced apoptosis. It is filed as cell-based, human. The settings on record: Example 2/3; Aβ40-Q22 challenge; FIG. 17B, 21. As for the experimental part: as §1, §2
The test system of experiment [1] is SH-SY5Y and D3 cell cultures. The experiment can be described thus: Intracellular pH measurement (pHrodo). The class given is cell-based, human. The settings on record: MTZ 100 and 300 μM, AZT 30 and 100 μM; 3 and 12 hours; with and without peptide. The procedure: Cells were plated on 96-wells microplate fluorescence microtiter (ThermoFisher, Waltham, Mass., US). The day after, cells were treated with the different drugs and/or peptides. After this, intracellular pH measurement was performed by using the pHrodo red AM kit, following the indications provided by the manufacturer.

Experiment [2] relates to TgSwDI mice. The experiment can be described thus: Contextual fear conditioning. The class given is in vivo, mouse. The note with it: short-term treatment (3 months).
For experiment [3], the system named is TgSwDI mice. The experiment can be described thus: Barnes Maze spatial memory testing. The class given is in vivo, mouse. The note with it: for behavioral phenotypes (Barnes maze): given with diet; for distance traveled, probe trial / mistakes, probe trial: in the diet for 8 months, 15-20 mg/kg/day; for distance traveled, probe trial / mistakes, probe trial / distance traveled in trial 10 (last trial): tested at 15-16 months; for distance traveled in trial 10 (last trial): treated for 8 months. From the text: The Barnes Maze was used to provide an index of spatial learning and memory. The task capitalizes on the motivation of mice to seek refuge from loud, open and brightly-lit spaces. Mice were trained across a series of trials to successfully navigate to a hidden escape chamber using information provided by distal spatial cues. The Barnes Maze consists of a relatively large (36″ in diameter), circular platform with a beige textured surface that is elevated 36″ from the floor (San Diego Instruments, San Diego USA). The platform has twenty 2″ diameter holes that are equally spaced around the periphery of the platform (1″ from the edge). A grey plastic escape box (˜10 cm×8.5 cm×4 cm) is located under only one of the holes, the location of which is constant for each subject but variable across subjects and counterbalanced across groups. The surface of the Barnes maze is brightly-lit (500-600 lux), illuminated by an overhead lamp (60-100 W) placed approximated 30″ above the center of the platform. Visible distal cues were placed around the room and remained constant throughout the testing period. An overhead video camera and specialized software (Noldus Ethovision 11.5) was used to track the locomotor trajectories of the mice. Mice were trained for six consecutive daily testing sessions (2 trials/day for 5 days, and probe test on day 6).
On each testing day, mice were brought to the testing room for a minimum of 30 mins prior to testing in order to acclimate to transport and testing room conditions. On the first day of testing, each mouse was gently removed from its home cage by the base of its tail and placed in the center of the platform and kept within an inverted 500 ml beaker for 1 min. A white noise generator (San Diego Instruments) was turned on (˜90-100 dB) when the mouse was placed onto the maze. After the 1-min period, the beaker was slowly moved (over the course of 1 min) to the target hole with the mouse freely moving but confined underneath. Care was taken not to catch the tail or paws of the mouse while moving the beaker. The mouse was then permitted, or was gently guided by the experimenter using the beaker, to enter the escape box and was given 2 min inside before being transported back to its home cage within the escape box. The white noise was turned off as soon as the mouse entered the escape box. The platform and start box were cleaned thoroughly with 30% ethanol and allowed to dry fully before each trial. To ensure that distal spatial cues rather than local intramaze cues were being used to help guide navigation to the escape box, the maze was rotated after each training trial and the escape box re-positioned to always be in the identical spatial location within the room.
After the initial beaker trial, each mouse was given 2 training trials per day. During training trials, mice were placed in the center of the platform within an plastic 6″l×6″w×8″h start box. The white noise generator was turned on and, after 10-15 s delay, the start box was lifted. The mouse was permitted a maximum of 3 min to find the designated hole and escape box. When a mouse entered the escape box the white noise was turned off and they were given approximately 1 additional min inside the box before being transferred back to the home cage. […] A 90-120 min inter-trial interval separated the two training trials on each daily session.
Twenty four hours after (Day 6) the fifth training session, a 3-min probe trial was given, conducted identically as the training trials but where the escape box had been removed. This probe was used to examine search behavior patterns and to help control for possible strategies that use local cues from the escape box.
Spatial learning and memory was inferred based on the latency, distance and number of errors (other holes visited) that was required for the mouse to successfully navigate to the escape box. […]

For the next experiment, the system named is EC and SH-SY5Y cultures. Description: Immunofluorescence deconvolution microscopy of CytC and MitoTracker (mitochondrial membrane potential). The class given is cell-based, human. The note with it: for loss of mitochondrial membrane potential (red dye internalization): Example 3, cells treated with Aβ. The procedure:
Both EC and SH-SY5Y cells were plated on to glass chamber slides (Thermo Fisher Scientific), pre-coated with either collagen-I or poly-d-lysine (for ECs and SH-SY5Y cells respectively). After seeding, cells were allowed to attach for 1 day before treatment with the different peptides for 1-3 days, as above. Cells were washed with ice-cold PBS, fixed with 4% paraformaldehyde (10 min at room temperature) and blocked for 1 h with 20 mg/ml BSA in PBST (PBS containing 0.3% Triton X-100). Slides were further incubated with mouse anti-CytC monoclonal antibody (BD Biosciences; 1:200 dilution in PBST containing 5 mg/ml BSA; 2 h at room temperature) followed by Alexa Fluor® 488-conjugated anti-(mouse IgG) antibody (Invitrogen; 1:200 in PBST with 5 mg/ml BSA; 1 h at room temperature). Fluorescence signals were visualized in a Nikon Eclipse E 800 deconvolution microscope using NIS Elements software (Nikon Instruments) for image acquisition and processing, and AutoQuant (Media Cybernetics) for 3D deconvolution. The effect of methazolamide in preventing the Aβ-induced release of CytC from the mitochondria into the cytoplasm was evaluated in EC and SH-SY5Y cultures. After peptide incubation in the presence and absence of methazolamide (Sigma), release of CytC was visualized by immunofluorescence microscopy and WB analysis, and corroborated by confocal assessment of CytC in conjunction with the mitochondrial marker MitoTracker®.

The mark [4] stands for this setting: Aβ-Iowa(isoD), 1 day, methazolamide starting at 100 μM.

For `CC(=O)/N=c1/sc(S(N)(=O)=O)nn1C` [MTZ, methazolamide], the “DNA fragmentation after Aβ challenge” value in the experiment on SH-SY5Y cells (100 μM MTZ, Aβ42 10 μM or Aβ40-Q22 50 μM, 1 day) is “significantly effective at reducing DNA fragmentation”. Also, in the experiment on SH-SY5Y cells (300 μM MTZ, Aβ42 10 μM or Aβ40-Q22 50 μM, 1 day), the “Aβ-mediated increase in fragmented nucleosomes” value is “completely prevented”. Besides, in the experiment on SH-SY5Y cells, the “apoptosis in response to Aβ” value was “prevented”. In addition, in the experiment with hCMEC/D3 cells (D3), the “apoptosis in response to Aβ” value is listed as “prevented”. For the same compound, the “intracellular pH values” in experiment [1] is given as “did not show any significant changes”. For the same compound, the “increase of freezing in contextual fear conditioning” value in the experiment on TgSwDI mice [2] is on record as “normalizing effect”. In addition, in the experiment with TgSwDI mice [3], the “behavioral phenotypes (Barnes maze)” value is listed as “ameliorate behavioral phenotypes”; the “distance traveled, probe trial” value is recorded as “not significantly higher than WT mice”; the “mistakes, probe trial” value was “not significantly higher than WT mice”; the “distance traveled in trial 10 (last trial)” value is given as “not significantly higher than WT mice”. Further, in the experiment on EC and SH-SY5Y cultures (setting [4]), the “mitochondrial membrane potential (MitoTracker localization)” value is “restored the mitochondrial membrane potential” and the “subcellular localization of CytC” value is “preserved the subcellular localization of CytC”. Moreover, in the experiment on EC and SH-SY5Y cultures, the “loss of mitochondrial membrane potential (red dye internalization)” value is reported as “prevented”.
For `CC(=O)Nc1nnc(S(N)(=O)=O)s1` [ATZ, acetazolamide], the “apoptosis in response to Aβ” value in the experiment on SH-SY5Y cells is on record as “prevented”. Further, the “apoptosis in response to Aβ” value in the experiment on hCMEC/D3 cells (D3) is “prevented”. The “intracellular pH values” in experiment [1] was “did not show any significant changes”. Also, the “increase of freezing in contextual fear conditioning” value in the experiment on TgSwDI mice [2] was “normalizing effect”. In the experiment on TgSwDI mice [3], the “behavioral phenotypes (Barnes maze)” value is given as “ameliorate behavioral phenotypes”; the “distance traveled, probe trial” value is “not significantly higher than WT mice”; the “mistakes, probe trial” value was “not significantly higher than WT mice”; the “distance traveled in trial 10 (last trial)” value is “not significantly higher than WT mice”. In addition, the “loss of mitochondrial membrane potential (red dye internalization)” value with EC and SH-SY5Y cultures is “prevented”.
